From US20110091470A1, “ANTI-FLT3 ANTIBODIES” (IMCLONE LLC, priority 2008, published 2011)

Key:
SEM-K2 cells [1] = test: Combination therapy with EB10 and MTX in SEM-K2 leukemia model; format: in vivo, NOD/SCID mice; conditions: monotherapy: EB10 10 mg/kg i.p. 2×/week; MTX 100 mg/kg Q7D
Procedure: One day prior to the start of treatment, i.v. inject 65, 7 weeks old, male NOD/SCID mice with 5×10^5 SEM-K2 cells suspended in PBS in a total volume of 200 μl. Drop from the study mice receiving less than 90% of cells intravenously.
Prepare MTX (Sigma Chemical, Cat # M9929) in USP Saline at a concentration of 10 mg/ml and dose Q7D for three cycles. […] Record mouse survival daily. Follow the mice for survival, and sacrifice any mouse displaying signs of morbidity/mortality; mark as dead on the day of sacrifice. End the study on day 168 and sacrifice any mice surviving to that point. Compare survival in the treatment groups by Log Rank Test between treatment groups.

Human Leukemia Cells = test: ADCC 51Cr release assay with human NK cells; format: cell-based
SEM-K2 cells [2] = test: SEM-K2 xenograft human leukemia model; format: in vivo, NOD-SCID mice; conditions: 20 mg/kg i.p. two times weekly
EOL-1 leukemia cells = test: EOL-1 xenograft human AML leukemia model; format: in vivo, NOD-SCID mice
BaF3-ITD cells [3] = test: FL-independent cell proliferation assay ([3H]-thymidine); format: cell-based
Procedure: Harvest EOL-1 cells and wash three times using serum-free RPMI 1640 medium. Culture cells in serum-free RPMI 1640 medium for 12 hours. For BaF3-ITD cells, perform the proliferation assay in RPMI 1640 medium supplemented with 10% FCS in the absence of exogenous FL. Reconstitute cells in serum-free AIM-V medium, plate in triplicates in a flat-bottomed 96-well plate (1×104/100 μl/well) and incubate with varying concentrations of antibodies (from 0 to 100 nM) and 30 ng/ml of FL at 37° C. for 68 hours. As a background control, incubate cells with medium alone in the absence of exogenous FL. Pulse cells with 0.25 μCi/well of [^3H]-thymidine for 4 hours. Harvest cells and measure cpm in a PerkinElmer Wallace-1205 Betaplate Liquid Scintillation Counter (Wellesley, Mass.). Calculate the percent inhibition of FL-induced proliferation for EOL-1 cells; deduce the cpm of background proliferation (i.e., cell samples not stimulated with FL) from the cpm of all experimental samples. Calculate percent inhibition using the following formula: [(cpm of untreated sample−cpm of antibody-treated sample)/cpm of untreated sample]×100%.

MOLM-14 leukemia cells = test: MOLM14 xenograft AML leukemia model; format: in vivo, mice
Procedure: MOLM14 Xenograft AML Leukemia Model: Irradiate mice with 200 rads with a gamma irradiator and then i.v. inject with 10×10^6 MOLM-14 leukemia cells. Start treatment one day after tumor injection. […] Treat the control group with […] USP saline. Monitor mice daily for survival. Compare survival in the treatment groups by Log Rank test.

[4] = system: human leukemia cells (human CD45) in bone marrow; test: Bone marrow engraftment of human leukemia cells; format: in vivo, mice; conditions: 500 μg/dose; versus control-IgG treated group
Procedure: Bone Marrow Engraftment of Human Leukemia Cells: Harvest bone marrow from the femurs of EB10-treated mice (500 μg/dose) and the control-IgG treated group at […]. Analyze cells for human CD45 by flow cytometry at 6 and 14 weeks post leukemia cell injection for the degree of tumor cell infiltration of bone marrow. Compare the degree of tumor cell infiltration of bone marrow using immunohistochemical staining with a fluorescence-labeled anti-human CD45 antibody.

Stat5 = Stat5 phosphorylation assay; conditions: EOL-1, wild type
BaF3-ITD cells [5] = test: BaF3-ITD leukemia model; format: in vivo, athymic (nu/nu) mice
Procedure: BaF3-ITD Leukemia Model: Initiate i.v. injection of groups of 10 athymic (nu/nu) mice with 5×10^4 BaF3-ITD cells. For statistic analysis, use the non-parametric one-tailed Mann-Whitney Rank Sum test (SigmaStat 2.03, SPSS, Inc., Chicago, Ill.). Start treatment one day after tumor injection. […] Treat the control group with purified human IgG (500 μg/dose). Monitor mice daily for survival.

[6] = target: ITD-mutant FLT3 expressed on BaF3-ITD cells; test: cell-based or functional assay
[7] = target: wild-type FLT3 expressed on human leukemia cells (human) (UniProt P36888); test: cell-based or functional assay
[8] = 100 μg/dose i.p. three times weekly
[9] = 500 μg/dose i.p. three times weekly

Chain of ITD-mutant FLT3 expressed on BaF3-ITD cells (chain, as listed by the source mutant limits assumed, form in doubt): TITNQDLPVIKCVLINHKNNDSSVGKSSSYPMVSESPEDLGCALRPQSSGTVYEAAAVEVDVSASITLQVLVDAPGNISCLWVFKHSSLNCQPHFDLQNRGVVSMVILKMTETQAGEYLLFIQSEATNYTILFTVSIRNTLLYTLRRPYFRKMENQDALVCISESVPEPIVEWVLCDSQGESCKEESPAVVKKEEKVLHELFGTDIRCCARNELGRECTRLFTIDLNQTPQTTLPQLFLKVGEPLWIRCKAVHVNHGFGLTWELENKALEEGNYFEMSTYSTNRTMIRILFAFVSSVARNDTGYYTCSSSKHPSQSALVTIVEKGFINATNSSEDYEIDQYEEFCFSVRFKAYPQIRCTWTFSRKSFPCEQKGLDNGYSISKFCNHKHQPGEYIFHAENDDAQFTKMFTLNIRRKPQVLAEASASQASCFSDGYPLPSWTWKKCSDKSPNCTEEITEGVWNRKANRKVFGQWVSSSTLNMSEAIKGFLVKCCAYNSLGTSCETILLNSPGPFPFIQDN
Chain of wild-type FLT3 expressed on human leukemia cells (human) (P36888 27-993 limits assumed): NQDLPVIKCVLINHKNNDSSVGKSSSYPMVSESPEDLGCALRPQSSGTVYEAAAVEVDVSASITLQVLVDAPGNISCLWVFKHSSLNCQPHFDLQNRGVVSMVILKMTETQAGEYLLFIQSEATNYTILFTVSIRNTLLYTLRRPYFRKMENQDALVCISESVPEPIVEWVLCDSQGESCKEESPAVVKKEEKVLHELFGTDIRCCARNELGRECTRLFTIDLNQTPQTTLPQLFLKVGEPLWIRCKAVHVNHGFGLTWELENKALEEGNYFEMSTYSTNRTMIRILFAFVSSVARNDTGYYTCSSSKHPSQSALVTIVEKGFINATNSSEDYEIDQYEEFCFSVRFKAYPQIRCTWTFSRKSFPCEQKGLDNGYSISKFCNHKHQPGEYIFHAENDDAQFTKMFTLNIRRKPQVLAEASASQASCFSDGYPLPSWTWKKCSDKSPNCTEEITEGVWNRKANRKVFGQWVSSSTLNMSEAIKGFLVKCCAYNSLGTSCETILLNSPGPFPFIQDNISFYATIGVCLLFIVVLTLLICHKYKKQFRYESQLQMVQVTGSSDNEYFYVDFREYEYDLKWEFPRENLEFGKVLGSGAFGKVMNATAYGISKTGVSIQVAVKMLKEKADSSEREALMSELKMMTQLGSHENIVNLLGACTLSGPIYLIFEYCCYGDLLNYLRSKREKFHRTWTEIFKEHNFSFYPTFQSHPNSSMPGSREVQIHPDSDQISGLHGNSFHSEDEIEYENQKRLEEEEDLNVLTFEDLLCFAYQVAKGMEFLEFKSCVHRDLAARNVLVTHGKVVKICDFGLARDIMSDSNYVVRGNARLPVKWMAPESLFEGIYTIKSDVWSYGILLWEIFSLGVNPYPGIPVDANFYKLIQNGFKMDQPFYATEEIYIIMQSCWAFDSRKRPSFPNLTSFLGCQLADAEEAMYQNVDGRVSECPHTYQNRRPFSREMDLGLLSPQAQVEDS

CN(Cc1cnc2nc(N)nc(N)c2n1)c1ccc(C(=O)N[C@@H](CCC(=O)O)C(=O)O)cc1 [MTX, methotrexate, reference compound]
mouse survival in comparison to the control group (in words) (SEM-K2 cells [1]): prolonged survival

D4-3: recombinant human monoclonal antibody, full length IgG1κ targeting human FLT3; heavy chain SEQ ID NO 27, light chain SEQ ID NO 30 [Antibody D4-3]
ADCC response (in words) (Human Leukemia Cells): less potent ADCC response | median survival (SEM-K2 cells [2]): 55.5 days

EB10: recombinant human monoclonal antibody, full length IgG1κ targeting human FLT3; heavy chain SEQ ID NO 25, light chain SEQ ID NO 28
effect on survival (in words) (EOL-1 leukemia cells; 10 μg): No effect | mean survival time (EOL-1 leukemia cells; [8]): 52.8 ± 18.6 days | mean survival time (EOL-1 leukemia cells; 250 μg/dose i.p. three times weekly): 55.3 ± 18.9 days | mean survival time (EOL-1 leukemia cells; [9]): 62.3 ± 18.7 days | % Inhibition of FL-independent proliferation (Mean ± Standard deviation) (BaF3-ITD cells [3]; 6 nM): 9.6 ± 3.1% | % Inhibition of FL-independent proliferation (Mean ± Standard deviation) (BaF3-ITD cells [3]; 13 nM): 13.0 ± 4.0% | % Inhibition of FL-independent proliferation (Mean ± Standard deviation) (BaF3-ITD cells [3]; 25 nM): 23.3 ± 0.6% | % Inhibition of FL-independent proliferation (Mean ± Standard deviation) (BaF3-ITD cells [3]; 50 nM): 28.6 ± 3.1% | % Inhibition of FL-independent proliferation (Mean ± Standard deviation) (BaF3-ITD cells [3]; 100 nM): 29.2 ± 3.0% | median survival (MOLM-14 leukemia cells; 0.2 mg/kg i.p. two times weekly): 38.5 days | median survival (MOLM-14 leukemia cells; 10 mg/kg i.p. two times weekly): 63 days | number of tumor cells in bone marrow [4]: decreased significantly | ADCC response (in words) (Human Leukemia Cells): strong ADCC response | median survival (SEM-K2 cells [2]): 108.5 days | Inhibition of Stat5 Phosphorylation (IC50) (Stat5): No effect | mean survival time (BaF3-ITD cells [5]; [8]): 66.5 ± 32.9 days | mean survival time (BaF3-ITD cells [5]; [9]): 63.4 ± 44.6 days | mouse survival in comparison to the control group (in words) (SEM-K2 cells [1]): significantly prolonged mouse survival

control IgG (antibody)
% Inhibition of FL-independent proliferation of BaF3-ITD cells at 100 nM [6]: 2% | % Inhibition of FL-induced proliferation of EOL-1 cells at 100 nM [7]: 0.4%
